{"source": "the supplement of paper PMC9663587", "test_in_all_cases": "increase in dead-cell fraction, 72 h; higher = more death;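 further: breast cancer cell lines in 384-well plates, stained with Hoechst plus LIVE/DEAD far red dye and imaged, cells above an LDR intensity threshold counted dead, Hoechst-negative corpses included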", "key": {"[1]": {"compound": "CN(C)C/C=C/C(=O)Nc1ccc(C(=O)Nc2cccc(Nc3ncc(Cl)c(-c4c[nH]c5ccccc45)n3)c2)cc1 [THZ1]"}, "[2]": {"compound": "CC(=O)c1c(C)c2cnc(Nc3ccc(N4CCNCC4)cn3)nc2n(C2CCCC2)c1=O"}, "[3]": {"compound": "CN(C)C/C=C/C(=O)Nc1ccc(C(=O)N2CCC[C@@H](Nc3ncc(Cl)c(-c4c[nH]c5ccccc45)n3)C2)cc1 [THZ531]"}, "[4]": {"compound": "CN(C)C(=O)c1cc2cnc(Nc3ccc(N4CCNCC4)cn3)nc2n1C1CCCC1 [LEE011/Ribociclib]"}, "[5]": {"compound": "CN1CC[C@H](c2c(O)cc(O)c3c(=O)cc(-c4ccccc4Cl)oc23)[C@H](O)C1 [Flavopiridol]"}, "[6]": {"compound": "C=CC(=O)Nc1ccc(C(=O)Nc2[nH]nc3c2CN(C(=O)N[C@H](CN(C)C)c2ccccc2)C3(C)C)cc1 [YKL-5-124]"}}}
{"cell line": "MDAMB436", "values": [{"measurement": "increase in dead-cell fraction", "setting": "[1]; 0.1 µM", "value": 0.0476}, {"measurement": "increase in dead-cell fraction", "setting": "[1]; 0.3162 µM", "value": 0.0477}, {"measurement": "increase in dead-cell fraction", "setting": "[1]; 1 µM", "value": 0.0644}, {"measurement": "increase in dead-cell fraction", "setting": "[2]; 0.0003162 µM", "value": -0.0017}, {"measurement": "increase in dead-cell fraction", "setting": "[2]; 0.001 µM", "value": 0.0024}, {"measurement": "increase in dead-cell fraction", "setting": "[2]; 0.003162 µM", "value": -0.0027}, {"measurement": "increase in dead-cell fraction", "setting": "[2]; 0.01 µM", "value": -0.0025}, {"measurement": "increase in dead-cell fraction", "setting": "[2]; 0.03162 µM", "value": 0}, {"measurement": "increase in dead-cell fraction", "setting": "[2]; 0.1 µM", "value": 0.0005}, {"measurement": "increase in dead-cell fraction", "setting": "[2]; 0.3162 µM", "value": -0.0024}, {"measurement": "increase in dead-cell fraction", "setting": "[2]; 1 µM", "value": -0.0052}, {"measurement": "increase in dead-cell fraction", "setting": "[2]; 3.162 µM", "value": 0.0044}, {"measurement": "increase in dead-cell fraction", "setting": "[3]; 0.0001 µM", "value": -0.0141}, {"measurement": "increase in dead-cell fraction", "setting": "[3]; 0.0003162 µM", "value": -0.004}, {"measurement": "increase in dead-cell fraction", "setting": "[3]; 0.001 µM", "value": 0.0035}, {"measurement": "increase in dead-cell fraction", "setting": "[3]; 0.003162 µM", "value": -0.0059}, {"measurement": "increase in dead-cell fraction", "setting": "[3]; 0.01 µM", "value": -0.0057}, {"measurement": "increase in dead-cell fraction", "setting": "[3]; 0.03162 µM", "value": 0.0007}, {"measurement": "increase in dead-cell fraction", "setting": "[3]; 0.1 µM", "value": 0.0043}, {"measurement": "increase in dead-cell fraction", "setting": "[3]; 0.3162 µM", "value": 0.0247}, {"measurement": "increase in dead-cell fraction", "setting": "[3]; 1 µM", "value": 0.0705}, {"measurement": "increase in dead-cell fraction", "setting": "[4]; 0.001 µM", "value": -0.0008}, {"measurement": "increase in dead-cell fraction", "setting": "[4]; 0.003162 µM", "value": -0.0095}, {"measurement": "increase in dead-cell fraction", "setting": "[4]; 0.01 µM", "value": -0.0034}, {"measurement": "increase in dead-cell fraction", "setting": "[4]; 0.03162 µM", "value": -0.0032}, {"measurement": "increase in dead-cell fraction", "setting": "[4]; 0.1 µM", "value": 0.0007}, {"measurement": "increase in dead-cell fraction", "setting": "[4]; 0.3162 µM", "value": -0.0014}, {"measurement": "increase in dead-cell fraction", "setting": "[4]; 1 µM", "value": -0.0035}, {"measurement": "increase in dead-cell fraction", "setting": "[4]; 3.162 µM", "value": -0.0137}, {"measurement": "increase in dead-cell fraction", "setting": "[4]; 10 µM", "value": 0.0049}, {"measurement": "increase in dead-cell fraction", "setting": "[5]; 0.0001 µM", "value": 0.003}, {"measurement": "increase in dead-cell fraction", "setting": "[5]; 0.0003162 µM", "value": -0.0059}, {"measurement": "increase in dead-cell fraction", "setting": "[5]; 0.001 µM", "value": -0.0173}, {"measurement": "increase in dead-cell fraction", "setting": "[5]; 0.003162 µM", "value": 0.0048}, {"measurement": "increase in dead-cell fraction", "setting": "[5]; 0.01 µM", "value": -0.0068}, {"measurement": "increase in dead-cell fraction", "setting": "[5]; 0.03162 µM", "value": -0.002}, {"measurement": "increase in dead-cell fraction", "setting": "[5]; 0.1 µM", "value": 0.0119}, {"measurement": "increase in dead-cell fraction", "setting": "[5]; 0.3162 µM", "value": 0.0798}, {"measurement": "increase in dead-cell fraction", "setting": "[5]; 1 µM", "value": 0.0954}, {"measurement": "increase in dead-cell fraction", "setting": "[6]; 0.001 µM", "value": -0.0039}, {"measurement": "increase in dead-cell fraction", "setting": "[6]; 0.003162 µM", "value": 0.0007}, {"measurement": "increase in dead-cell fraction", "setting": "[6]; 0.01 µM", "value": 0.019}, {"measurement": "increase in dead-cell fraction", "setting": "[6]; 0.03162 µM", "value": 0.0153}, {"measurement": "increase in dead-cell fraction", "setting": "[6]; 0.1 µM", "value": 0.0342}, {"measurement": "increase in dead-cell fraction", "setting": "[6]; 0.3162 µM", "value": 0.0446}, {"measurement": "increase in dead-cell fraction", "setting": "[6]; 1 µM", "value": 0.0289}, {"measurement": "increase in dead-cell fraction", "setting": "[6]; 3.162 µM", "value": 0.027}, {"measurement": "increase in dead-cell fraction", "setting": "[6]; 10 µM", "value": 0.132}]}
